Test results reported in PubChem BioAssay (NCI).
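Grown in 96-well plates, cells were treated for 48 hours with each compound at five concentrations. Insufficient inhibition: endpoint recorded as highest concentration tested. GI50 = concentration required for 50% inhibition of growth. The concentration for full growth arrest is given as TGI.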 Where a SMILES comes first, the peptide text is derived from it. The star is where a group is joined. Cbz = O=C(OCc1ccccc1)*; Bn = c1ccc(C*)cc1

Assays:
Test in all cases: DTP human tumour cell line panel, 48 h
[1] = system: MALME-3M melanoma
[2] = system: MOLT-4 leukemia
[3] = system: OVCAR-3 ovarian
[4] = system: RPMI-8226 leukemia
[5] = system: SNB-19 CNS
[6] = system: SW-620 colon
[7] = system: UACC-257 melanoma
[8] = system: HOP-92 NSCLC
[9] = system: NCI-H23 lung
[10] = system: SF-539 CNS
[11] = system: NCI-H226 lung

Structure (SMILES)	TGI [1] [µM]	TGI [2] [µM]	TGI [3] [µM]	TGI [4] [µM]	TGI [5] [µM]	TGI [6] [µM]	TGI [7] [µM]	TGI [8] [µM]	TGI [9] [µM]	TGI [10] [µM]	TGI [11] [µM]	GI50 [1] [µM]	GI50 [11] [µM]	GI50 [9] [µM]	GI50 [3] [µM]	GI50 [4] [µM]	GI50 [10] [µM]	GI50 [6] [µM]	GI50 [7] [µM]	GI50 [8] [µM]
COc1ccc(-c2oc3cc(OC(C)=O)cc(OC(C)=O)c3c(=O)c2OC)cc1	65.6	68.4	38.6	38.3	79.4	39.7	34.7	–	–	–	–	–	–	–	–	–	–	–	–	–
CC(=O)OCC1OC(NC(=O)N(CCCl)N=O)C(OC(C)=O)C(OC(C)=O)C1OC(C)=O (stereo not drawn)	> 100	> 31.6	> 100	> 100	> 100	> 100	> 100	> 100	> 100	> 100	–	–	–	–	–	–	–	–	–	–
C=CCOCCC(CC=C)C(=O)CC(=O)OC (stereo not drawn)	> 100	> 100	> 100	> 100	> 100	> 100	> 100	> 100	> 100	> 100	> 100	–	–	–	–	–	–	–	–	–
CCn1c(=O)c(C(=O)O)c(Cl)c2cc3c(cc21)OCO3	> 100	> 100	> 100	> 100	> 100	> 100	> 100	> 100	> 100	> 100	> 100	–	–	–	–	–	–	–	–	–
NC(=O)c1ccc([N+](=O)[O-])cc1	> 100	> 100	> 100	> 100	> 100	> 100	> 100	–	> 100	> 100	> 100	–	–	–	–	–	–	–	–	–
C1CSCCSCSCCS1	–	–	> 100	–	> 100	> 100	> 100	> 100	> 100	> 100	> 100	–	–	–	–	–	–	–	–	–
O=C1c2cccc(O)c2C(=O)c2c(O)cccc21	–	> 100	> 100	> 100	> 100	> 100	> 100	> 100	> 100	> 100	> 100	–	–	–	–	–	–	–	–	–
N=C(N)c1ccc(-c2ccc(-c3ccc4ccccc4c3)s2)s1	9.36	–	3.7	5.02	–	3.52	31.2	–	11.1	4.57	79.2	3.1	33.6	2.96	1.89	2.3	1.97	1.91	16.1	–
COc1ccc(N2C(=O)/C(=C\c3ccccc3)SC2c2cc(OC)c(OC)c(OC)c2)cc1 (stereo not drawn)	> 100	> 100	–	–	> 100	–	> 100	> 100	> 100	–	> 100	–	–	–	–	–	–	–	–	–
CS(=O)(=O)c1ccc2nc(-c3ccc(O)cc3)sc2c1	31	> 100	31.8	35.7	36.2	38.4	38.9	–	39.6	23.6	36.6	–	–	–	–	–	–	–	–	–
C=CCNC1=C2C[C@@H](C)C[C@H](OC)[C@H](O)[C@@H](C)/C=C(\C)[C@H](OC(N)=O)[C@@H](OC)/C=C\C=C(/C)C(=O)NC(=CC1=O)C2=O	3.39	13	9.64	26.2	62.2	33.9	21.3	15.9	8.3	9.5	28.9	–	–	–	–	–	–	–	–	–
COc1ccc2c(c1)C(OC)C1c3c(cc4c(c3-2)OCO4)CCN1C (stereo not drawn)	3.97	> 51.7	25.1	20.6	19.3	18.7	13	11.8	11.1	8.38	9.09	–	–	–	–	–	–	–	–	–
O=C(Nc1ccc(Cl)cc1)c1cc([N+](=O)[O-])ccc1O	8.57	10.5	7.56	10.2	> 49.2	> 53.3	16.7	–	6.66	> 34	12.6	–	–	–	–	–	–	–	–	–
CC1C[C@]2(C[C@@H](C)C(=O)O2)OC2CC3(C)C4CCC5C(C)(C)OC(=O)CC[C@@]56C[C@@]46CC[C@]3(C)C12 (stereo partly drawn)	> 100	> 100	–	> 100	> 100	> 100	> 100	> 100	> 100	> 100	> 100	–	–	–	–	–	–	–	–	–
C[n+]1c2ccccc2c(CNCC(=O)O)c2ccccc21	28.6	0.811	6.2	1.52	22.2	2.24	23.8	10.4	24.8	5.19	15.5	–	–	–	–	–	–	–	–	–
c1ccc(-c2n(Cc3ccc4ccccc4c3)c3ccccc3[n+]2Cc2ccc3ccccc3c2)cc1	0.768	–	1.03	1.47	–	1.33	–	0.508	–	1.29	2.01	0.242	0.352	–	0.259	0.208	0.336	0.331	–	0.117
COC(=O)C(Cc1ccc(O)cc1)NC(=O)C(COCc1ccccc1)NC(=O)OCc1ccccc1 (stereo not drawn) (Cbz-Ser(Bn)-Tyr-OMe; configuration not given here)	39.6	> 100	31.8	> 100	31.2	32.9	39.5	60.8	42.8	34.2	36.9	–	–	–	–	–	–	–	–	–
